Some test systems named below: 786-0; BT-549; DU-145; EKVX; HCT-15; HL-60; HOP-92; HT-29; KM12; LOX IMVI; M14; MOLT-4; NCI-H460; NCI-H522; OVCAR-3; SF-295; U-251; UACC-257; UO-31; Hs-578T.
Test in all cases: NCI tumour cell line growth inhibition, 48 h

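Test compounds were applied to cells in 96-well plates for 48 hours at 5 doses. GI50: concentration for 50% inhibition of growth.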 The source made the active and inactive calls. No stated cut-off is given here; in the data, active = GI50 up to about 1.1 µM and inactive = higher.

In the case of `CCOC(=O)c1ccc(-c2cc(C)no2)[nH]1`, the GI50 was > 100 µM (inactive) with 786-0; > 100 µM (inactive) with BT-549; > 100 µM (inactive) with DU-145; 41.7 µM (inactive) in the assay on EKVX; 30.2 µM with HCT-15; 67.5 µM (inactive) with HL-60. Also, the GI50 in the assay with HOP-92 was > 100 µM (inactive); in the assay with HT-29, > 100 µM (inactive); with KM12, 31.8 µM (inactive); in the assay on LOX IMVI, > 100 µM (inactive); in the assay with M14, > 100 µM (inactive); in the assay on MOLT-4, 42.1 µM (inactive). For the same compound, the GI50 with NCI-H460 is 33.8 µM (inactive); in the assay with NCI-H522 it was 76.2 µM (inactive); in the assay with OVCAR-3, 81.8 µM (inactive); in the assay with SF-295, > 100 µM (inactive); with U-251, 98.4 µM (inactive); in the assay with UACC-257, > 100 µM (inactive). Besides, in the assay with UO-31, the GI50 is > 100 µM (inactive).

As for `C/C(=C\CNc1ncnc2c1ncn2CCC#N)CO`, the GI50 in the assay with 786-0, with DU-145, in the assay on EKVX, in the assay with HL-60, with HOP-92 and in the assay on HT-29 was > 100 µM (inactive) in each case. Besides, the GI50 with Hs-578T, with KM12, in the assay on LOX IMVI, in the assay with M14, in the assay on MOLT-4 and in the assay on NCI-H460 was > 100 µM (inactive) each time. Also, the GI50 in the assay on NCI-H522, with OVCAR-3, in the assay with SF-295, in the assay with UACC-257 and in the assay on UO-31 was > 100 µM (inactive) each time.

Consider `CC(=O)OC1[C@H](n2ccnc2)C[C@H]2[C@@H]3CC=C4CC(N5CCCC5)CC[C@]4(C)[C@H]3CC[C@]12C` (stereo partly drawn), for which the GI50 was 22.5 µM (inactive) in the assay with 786-0; > 100 µM (inactive) in the assay on DU-145; 70.1 µM (inactive) with EKVX; 21.3 µM in the assay with HCT-15; 12.1 µM (inactive) with HL-60; 69.5 µM (inactive) in the assay on HOP-92. In addition, the GI50 in the assay on HT-29 is 5.35 µM (inactive); in the assay on Hs-578T it was > 100 µM (inactive); in the assay on KM12, 58.3 µM (inactive); in the assay on LOX IMVI, 10.1 µM (inactive); in the assay on M14, 21.8 µM (inactive); in the assay with MOLT-4, 17.3 µM (inactive). In addition, the GI50 is 6.71 µM (inactive) in the assay on NCI-H460; 24.1 µM (inactive) with NCI-H522; 54.6 µM (inactive) with OVCAR-3; 20.5 µM (inactive) in the assay on SF-295; 55.3 µM (inactive) in the assay with U-251; 18.8 µM (inactive) in the assay with UACC-257. Moreover, the GI50 in the assay with UO-31 was 49.5 µM (inactive).

On to `O=[N+]([O-])c1c2nc3n(c2cc2c1nc1n2CCC1)CCC3`, for which the GI50 in the assay with 786-0 is > 100 µM (inactive); in the assay on DU-145, > 100 µM (inactive); with EKVX, > 100 µM (inactive); in the assay with HCT-15 it was more than 100 µM; in the assay with HL-60, > 100 µM (inactive); with HOP-92, > 100 µM (inactive). For the same compound, the GI50 in the assay with HT-29, in the assay with Hs-578T, in the assay on KM12, in the assay with LOX IMVI, in the assay with M14 and in the assay on MOLT-4 was > 100 µM (inactive) in each case. The GI50 with NCI-H460, in the assay on NCI-H522, in the assay on OVCAR-3, in the assay on SF-295, in the assay with U-251 and with UACC-257 was > 100 µM (inactive) throughout. Moreover, the GI50 with UO-31 was > 100 µM (inactive).

As for `N#CC(c1ccccc1)c1cccc2ccccc12` (stereo not drawn), the GI50 was 69.5 µM (inactive) in the assay with 786-0; 50.5 µM (inactive) with DU-145; 37.8 µM (inactive) with EKVX; 37.9 µM in the assay with HCT-15; 21.1 µM (inactive) in the assay with HL-60; 43.2 µM (inactive) in the assay on HT-29. Besides, the GI50 in the assay on Hs-578T is 36.7 µM (inactive); in the assay with KM12, 21.8 µM (inactive); in the assay on LOX IMVI, 21.3 µM (inactive); in the assay with M14, 30.6 µM (inactive); in the assay on MOLT-4 it was 17.5 µM (inactive); in the assay on NCI-H460, 35.8 µM (inactive). Besides, the GI50 was 22 µM (inactive) in the assay with NCI-H522; 29.9 µM (inactive) in the assay on OVCAR-3; 46.7 µM (inactive) in the assay with SF-295; 48.9 µM (inactive) in the assay with U-251; 24.4 µM (inactive) in the assay on UACC-257; 28.2 µM (inactive) in the assay with UO-31.

Take `CCCCC(O)(c1ccccc1)C(O)(c1ccccc1)c1c(F)c(F)c(F)c(F)c1F` (stereo not drawn): the GI50 in the assay on 786-0 is 20.1 µM (inactive); in the assay with BT-549 it was 33.3 µM (inactive); in the assay on DU-145, 48.1 µM (inactive); in the assay on EKVX, 17.9 µM (inactive); in the assay on HCT-15, 13.5 µM; with HL-60, 21.3 µM (inactive). Further, the GI50 is 17.4 µM (inactive) with HOP-92; 14.1 µM (inactive) in the assay with HT-29; 30.3 µM (inactive) in the assay with M14; 16.8 µM (inactive) in the assay with MOLT-4; 23.7 µM (inactive) in the assay with NCI-H460; 17.4 µM (inactive) with OVCAR-3. The GI50 was > 10 µM (inactive) with SF-295, 17.3 µM (inactive) in the assay with U-251, 18.2 µM (inactive) in the assay with UACC-257 and 30.3 µM (inactive) in the assay with UO-31.

For the compound `Cn1c(C(C#N)c2cc(Cl)ncn2)nc2ccccc21` (stereo not drawn), the GI50 was > 100 µM (inactive) with 786-0; > 100 µM (inactive) with BT-549; > 100 µM (inactive) with DU-145; > 100 µM (inactive) in the assay with EKVX; more than 100 µM in the assay with HCT-15; > 100 µM (inactive) in the assay on HOP-92. Further, the GI50 with HT-29, in the assay with KM12, with LOX IMVI, with M14, in the assay with MOLT-4 and in the assay on NCI-H460 was > 100 µM (inactive) throughout. The GI50 in the assay with NCI-H522, in the assay on OVCAR-3, in the assay with SF-295, with U-251, in the assay with UACC-257 and with UO-31 was > 100 µM (inactive) throughout.

Regarding `COc1cc([C@@H]2c3cc4c(cc3[C@@H](Nc3ccccc3C(=O)c3ccccc3)[C@H]3COC(=O)[C@H]23)OCO4)cc(OC)c1OC`, the GI50 with 786-0 is 0.618 µM (active); in the assay with DU-145, 1.82 µM (inactive); with EKVX it was > 54.6 µM (inactive); in the assay on HCT-15, 0.444 µM; in the assay on HL-60, 0.212 µM (active); in the assay on HT-29, 0.314 µM (active). For the same compound, the GI50 is 0.373 µM (active) with Hs-578T; 0.3 µM (active) in the assay with KM12; 0.313 µM (active) in the assay on LOX IMVI; 0.729 µM (active) in the assay with M14; 0.38 µM (active) in the assay on MOLT-4; 0.442 µM (active) with NCI-H460. The GI50 in the assay on NCI-H522 is 0.31 µM (active); in the assay on OVCAR-3, 0.785 µM (active); in the assay with SF-295, 0.376 µM (active); in the assay with U-251, 0.362 µM (active); with UACC-257, 0.933 µM (active); with UO-31, 0.776 µM (active).

`Nc1ncnc2c1ncn2C1OC(CO)=CC1O` (stereo not drawn): the GI50 in the assay with 786-0 was > 37.5 µM (inactive); in the assay on DU-145 it was > 37.5 µM (inactive); in the assay on EKVX, > 37.5 µM (inactive); with HCT-15 it was more than 37.5 µM; in the assay on HL-60 it was > 37.5 µM (inactive); with HOP-92 it was > 37.5 µM (inactive). The GI50 with HT-29, in the assay on Hs-578T, with KM12, with LOX IMVI, in the assay on M14 and in the assay with MOLT-4 was > 37.5 µM (inactive) in each case. The GI50 with NCI-H460, in the assay with NCI-H522, with OVCAR-3, in the assay on SF-295, in the assay with U-251 and with UACC-257 was > 37.5 µM (inactive) in each case. The GI50 in the assay on UO-31 is > 37.5 µM (inactive).

`Cc1cc(C[C@H]2O[C@@H]3OC(C)(C)O[C@@H]3[C@H]3OC(C)(C)O[C@H]32)c2ccccc2n1`: the GI50 in the assay on 786-0 was > 100 µM (inactive); in the assay with DU-145, > 100 µM (inactive); with EKVX it was 79.6 µM (inactive); in the assay with HCT-15 it was 76.4 µM; in the assay on HL-60, 27.5 µM (inactive); with HT-29, > 100 µM (inactive). The GI50 in the assay on Hs-578T is 26.4 µM (inactive); in the assay on KM12 it was 54.8 µM (inactive); with LOX IMVI, > 100 µM (inactive); in the assay with MOLT-4 it was 31.8 µM (inactive); in the assay on NCI-H460, 30 µM (inactive); in the assay with NCI-H522 it was 16 µM (inactive). The GI50 was > 100 µM (inactive) in the assay on SF-295, > 100 µM (inactive) in the assay with U-251, > 100 µM (inactive) in the assay with UACC-257 and 33.3 µM (inactive) in the assay on UO-31.

With `COc1cc(C=O)ccc1O` [VANILLIN], the GI50 in the assay with 786-0 is > 100 µM (inactive); in the assay on DU-145 it was > 100 µM (inactive); in the assay with EKVX it was > 100 µM (inactive); with HCT-15, more than 100 µM; with HL-60, > 100 µM (inactive); in the assay with HOP-92 it was > 100 µM (inactive). Also, the GI50 in the assay on HT-29, in the assay with Hs-578T, in the assay with KM12, in the assay with LOX IMVI, with M14 and in the assay on MOLT-4 was > 100 µM (inactive) each time. The GI50 in the assay on NCI-H460, in the assay on NCI-H522, in the assay with OVCAR-3, in the assay with SF-295, with U-251 and in the assay on UACC-257 was > 100 µM (inactive) in each case. In the assay on UO-31, the GI50 is > 100 µM (inactive).

For the origin of these results see ChEMBL document CHEMBL1201862, “PubChem BioAssay data set” (2004).
